Measured values published in PubChem BioAssay AID1963448 (Molecular Pharmacology Branch, DTP, NCI, 2024).
Values belong to the compound of their own block, whether it stands above or below them.

Tested on: 616215-338-R-J1-PDC complex spheroid growth, % test/control
Test: Anticancer human tumor 616215-338-R-J1-PDC patient-derived colon adenocarcinoma cell line growth inhibition [Asc]
Details: for IC50: curve of first compound; for viability, T/C: stronger effect = lower value
Outline: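 Concentration series start at each agent's clinical Cmax, or at 10 microM when none is established, and drop in half-log steps; agents are applied alone or together to complex spheroids built with HUVEC and hMSC.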

[1] = second compound 0.1 µM, first compound 0.00316 µM
[2] = second compound 0.1 µM, first compound 0.01 µM
[3] = second compound 0.1 µM, first compound 0.0316 µM
[4] = second compound 0.1 µM, first compound 0.1 µM
[5] = second compound 0.316 µM, first compound 0.00316 µM
[6] = second compound 0.316 µM, first compound 0.01 µM
[7] = second compound 0.316 µM, first compound 0.0316 µM
[8] = second compound 0.316 µM, first compound 0.1 µM
[9] = second compound 1 µM, first compound 0.00316 µM
[10] = second compound 1 µM, first compound 0.01 µM
[11] = second compound 1 µM, first compound 0.0316 µM
[12] = second compound 1 µM, first compound 0.1 µM
[13] = second compound 3.16 µM, first compound 0.00316 µM
[14] = second compound 3.16 µM, first compound 0.01 µM
[15] = second compound 3.16 µM, first compound 0.0316 µM
[16] = second compound 3.16 µM, first compound 0.1 µM
[17] = second compound 10 µM, first compound 0.00316 µM
[18] = second compound 10 µM, first compound 0.01 µM
[19] = second compound 10 µM, first compound 0.0316 µM
[20] = second compound 10 µM, first compound 0.1 µM
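Note: spheroids exposed to agents for seven days before readout.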
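Throughout, for viability, T/C: 100% = DMSO vehicle control viability.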

IC50 (second compound 0.1 µM): > 300 nM
IC50 (second compound 0.316 µM): 143 nM
IC50 (second compound 1 µM): 36.6 nM
IC50 (second compound 3.16 µM): < 0.949 nM
IC50 (second compound 10 µM): < 0.949 nM
SMILES: NC(=O)C(=Cn1cnc(-c2cc(C(F)(F)F)cc(C(F)(F)F)c2)n1)c1cncnc1 + Cc1c(S(C)(=O)=O)c(-c2cc(F)cc(N3CCN(c4ccc(NS(=O)(=O)c5ccc(NC(CCN6CCC(C(=O)OCCCP(=O)(O)O)CC6)CSc6ccccc6)c(S(=O)(=O)C(F)(F)F)c5)cc4)CC3)c2)c(-c2ccc(Cl)cc2)n1C(C)C
viability, T/C (second compound 0.1 µM, first compound 0.000949 µM): 91.7%
viability, T/C (second compound 0.1 µM, first compound 0.003 µM): 91.1%
viability, T/C (second compound 0.1 µM, first compound 0.00949 µM): 87.2%
viability, T/C (second compound 0.1 µM, first compound 0.03 µM): 91.7%
viability, T/C (second compound 0.1 µM, first compound 0.0949 µM): 81%
viability, T/C (second compound 0.1 µM, first compound 0.3 µM): 71.8%
viability, T/C (second compound 0.316 µM, first compound 0.000949 µM): 95.6%
viability, T/C (second compound 0.316 µM, first compound 0.003 µM): 97.5%
viability, T/C (second compound 0.316 µM, first compound 0.00949 µM): 89.3%
viability, T/C (second compound 0.316 µM, first compound 0.03 µM): 78.8%
viability, T/C (second compound 0.316 µM, first compound 0.0949 µM): 64.7%
viability, T/C (second compound 0.316 µM, first compound 0.3 µM): 26.7%
viability, T/C (second compound 1 µM, first compound 0.000949 µM): 67%
viability, T/C (second compound 1 µM, first compound 0.003 µM): 71.3%
viability, T/C (second compound 1 µM, first compound 0.00949 µM): 68.5%
viability, T/C (second compound 1 µM, first compound 0.03 µM): 55.9%
viability, T/C (second compound 1 µM, first compound 0.0949 µM): 20.6%
viability, T/C (second compound 1 µM, first compound 0.3 µM): 1.76%
viability, T/C (second compound 3.16 µM, first compound 0.000949 µM): 41.7%
viability, T/C (second compound 3.16 µM, first compound 0.003 µM): 42.7%
viability, T/C (second compound 3.16 µM, first compound 0.00949 µM): 34.4%
viability, T/C (second compound 3.16 µM, first compound 0.03 µM): 24.3%
viability, T/C (second compound 3.16 µM, first compound 0.0949 µM): 2.24%
viability, T/C (second compound 3.16 µM, first compound 0.3 µM): 0.67%
viability, T/C (second compound 10 µM, first compound 0.000949 µM): 27.9%
viability, T/C (second compound 10 µM, first compound 0.003 µM): 25%
viability, T/C (second compound 10 µM, first compound 0.00949 µM): 19.2%
viability, T/C (second compound 10 µM, first compound 0.03 µM): 6.13%
viability, T/C (second compound 10 µM, first compound 0.0949 µM): 0.4%
viability, T/C (second compound 10 µM, first compound 0.3 µM): 0.25%

IC50 (second compound 0.1 µM): > 100 nM
IC50 (second compound 0.316 µM): > 100 nM
IC50 (second compound 1 µM): > 100 nM
IC50 (second compound 3.16 µM): < 0.316 nM
IC50 (second compound 10 µM): < 0.316 nM
SMILES: NC1CCC(NC2CC2c2ccccc2)CC1 (stereo not given) + Cc1c(S(C)(=O)=O)c(-c2cc(F)cc(N3CCN(c4ccc(NS(=O)(=O)c5ccc(NC(CCN6CCC(C(=O)OCCCP(=O)(O)O)CC6)CSc6ccccc6)c(S(=O)(=O)C(F)(F)F)c5)cc4)CC3)c2)c(-c2ccc(Cl)cc2)n1C(C)C
viability, T/C (second compound 0.1 µM, first compound 0.000316 µM): 85.7%
viability, T/C (second compound 0.1 µM, first compound 0.001 µM): 83%
viability, T/C [1]: 89%
viability, T/C [2]: 85.8%
viability, T/C [3]: 83.2%
viability, T/C [4]: 81.7%
viability, T/C (second compound 0.316 µM, first compound 0.000316 µM): 86.5%
viability, T/C (second compound 0.316 µM, first compound 0.001 µM): 79.6%
viability, T/C [5]: 78.3%
viability, T/C [6]: 78.7%
viability, T/C [7]: 79.5%
viability, T/C [8]: 79%
viability, T/C (second compound 1 µM, first compound 0.000316 µM): 73.5%
viability, T/C (second compound 1 µM, first compound 0.001 µM): 68.1%
viability, T/C [9]: 64.8%
viability, T/C [10]: 62.5%
viability, T/C [11]: 61.8%
viability, T/C [12]: 60.8%
viability, T/C (second compound 3.16 µM, first compound 0.000316 µM): 37.5%
viability, T/C (second compound 3.16 µM, first compound 0.001 µM): 40.5%
viability, T/C [13]: 36.6%
viability, T/C [14]: 32%
viability, T/C [15]: 31.2%
viability, T/C [16]: 34.7%
viability, T/C (second compound 10 µM, first compound 0.000316 µM): 24.5%
viability, T/C (second compound 10 µM, first compound 0.001 µM): 22.4%
viability, T/C [17]: 21.8%
viability, T/C [18]: 24%
viability, T/C [19]: 20%
viability, T/C [20]: 21.5%

IC50 (second compound 0.1 µM): 64.4 nM
IC50 (second compound 0.316 µM): 58.4 nM
IC50 (second compound 1 µM): 38.3 nM
IC50 (second compound 3.16 µM): < 3.16 nM
IC50 (second compound 10 µM): < 3.16 nM
SMILES: O=C(c1ccc(F)c(F)c1Nc1ccc(I)cc1F)N1CC(O)([C@@H]2CCCCN2)C1 + Cc1c(S(C)(=O)=O)c(-c2cc(F)cc(N3CCN(c4ccc(NS(=O)(=O)c5ccc(NC(CCN6CCC(C(=O)OCCCP(=O)(O)O)CC6)CSc6ccccc6)c(S(=O)(=O)C(F)(F)F)c5)cc4)CC3)c2)c(-c2ccc(Cl)cc2)n1C(C)C
viability, T/C [1]: 92.4%
viability, T/C [2]: 91.7%
viability, T/C [3]: 79.5%
viability, T/C [4]: 32%
viability, T/C (second compound 0.1 µM, first compound 0.316 µM): 1.51%
viability, T/C (second compound 0.1 µM, first compound 1 µM): 0.8%
viability, T/C [5]: 92.8%
viability, T/C [6]: 91.9%
viability, T/C [7]: 79.3%
viability, T/C [8]: 24.4%
viability, T/C (second compound 0.316 µM, first compound 0.316 µM): 0.48%
viability, T/C (second compound 0.316 µM, first compound 1 µM): 0.95%
viability, T/C [9]: 68%
viability, T/C [10]: 70.4%
viability, T/C [11]: 56%
viability, T/C [12]: 17.4%
viability, T/C (second compound 1 µM, first compound 0.316 µM): 0.25%
viability, T/C (second compound 1 µM, first compound 1 µM): 2.24%
viability, T/C [13]: 39.5%
viability, T/C [14]: 34.9%
viability, T/C [15]: 27.3%
viability, T/C [16]: 2.89%
viability, T/C (second compound 3.16 µM, first compound 0.316 µM): 0.11%
viability, T/C (second compound 3.16 µM, first compound 1 µM): 0.23%
viability, T/C [17]: 25.1%
viability, T/C [18]: 21.5%
viability, T/C [19]: 14.2%
viability, T/C [20]: 0.19%
viability, T/C (second compound 10 µM, first compound 0.316 µM): 0.18%
viability, T/C (second compound 10 µM, first compound 1 µM): 0.36%
